From US9951035B2, “Selective matrix metalloproteinase inhibitors” (University of Notre Dame du Lac, priority 2014, dated 2018)
“Also recorded” adds a separate entry of the source. Structures can show the parent of a compound that is named as a salt.

What was measured:
[1] = Pharmacokinetics and brain distribution after single iv dose
Method: Mice (male CD-1, 6-7 weeks old, ˜30 g body weight, specific pathogen free) were purchased from Charles River Laboratories, Inc. (Wilmington, Mass., USA).
Samples were analyzed by ultraperformance liquid chromatography (UPLC)/(+)electrospray ionization (ESI)-multiple-reaction monitoring (MRM) with a reversed phase C18 column (Acclaim® RSLC 120 C18, 2.2 μm, 120 Å, 2.1×100 mm, Dionex, Sunnyvale, Calif., USA).
Quantification of the compounds in plasma and brain was obtained using peak-area ratios of the compounds to the internal standard, and the linear-regression parameters obtained from the calibration curves.

[2] = target: MMP-2 (Homo sapiens (Human), UniProt P08253); experiment: Enzyme inhibition studies, MMP-2; format: biochemical; details: slow-binding, Ki calculated from koff/kon
[3] = target: MMP-9 (Homo sapiens (Human), UniProt P14780); experiment: Gel experiment, cleavage of tau by MMP-9; format: biochemical; details: in words
[4] = target: ADAM9 (Homo sapiens (Human), UniProt Q13443); experiment: Enzyme inhibition studies, ADAM9; format: biochemical; details: at 100 μM; listed as ND-336, HCl salt
[5] = target: MMP-3 (Homo sapiens (Human), UniProt P08254); experiment: Enzyme inhibition studies, MMP-3 catalytic domain; format: biochemical; details: at 100 μM; listed as ND-336, HCl salt
[6] = target: MMP-7 (Homo sapiens (Human), UniProt P09237); experiment: Enzyme inhibition studies, MMP-7; format: biochemical; details: at 100 μM; listed as ND-336, HCl salt
[7] = target: ADAM10 (Homo sapiens (Human), UniProt O14672); experiment: Enzyme inhibition studies, ADAM10; format: biochemical; details: at 100 μM; listed as ND-336, HCl salt
[8] = male, CD-1, mouse, in vivo, 5 mg/kg
[9] = male, CD-1, mouse, in vivo, iv, 5 mg/kg
[10] = plasma, 5 mg/kg single iv, mice

Sequence of MMP-2 (P08253 110-660): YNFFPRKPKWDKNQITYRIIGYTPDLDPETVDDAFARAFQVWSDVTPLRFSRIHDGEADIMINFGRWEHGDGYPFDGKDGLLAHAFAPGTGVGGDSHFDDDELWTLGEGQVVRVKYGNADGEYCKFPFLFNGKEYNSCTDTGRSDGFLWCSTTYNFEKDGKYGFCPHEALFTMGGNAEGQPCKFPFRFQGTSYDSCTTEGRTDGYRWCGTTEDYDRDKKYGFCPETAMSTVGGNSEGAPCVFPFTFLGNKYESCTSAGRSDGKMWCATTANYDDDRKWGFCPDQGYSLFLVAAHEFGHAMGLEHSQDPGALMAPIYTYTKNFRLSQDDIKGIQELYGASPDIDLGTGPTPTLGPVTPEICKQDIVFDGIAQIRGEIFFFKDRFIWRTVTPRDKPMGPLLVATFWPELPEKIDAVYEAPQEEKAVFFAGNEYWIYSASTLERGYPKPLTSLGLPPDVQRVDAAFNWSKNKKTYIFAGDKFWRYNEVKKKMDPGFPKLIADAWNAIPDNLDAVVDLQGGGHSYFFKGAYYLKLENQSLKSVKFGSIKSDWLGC
Sequence of MMP-7 (P09237 95-267): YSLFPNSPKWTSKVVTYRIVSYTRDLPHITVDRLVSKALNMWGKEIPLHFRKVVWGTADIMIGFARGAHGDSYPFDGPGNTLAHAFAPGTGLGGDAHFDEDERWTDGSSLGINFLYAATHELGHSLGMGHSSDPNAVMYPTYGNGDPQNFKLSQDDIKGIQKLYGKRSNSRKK
Sequence of ADAM10 (O14672 214-672): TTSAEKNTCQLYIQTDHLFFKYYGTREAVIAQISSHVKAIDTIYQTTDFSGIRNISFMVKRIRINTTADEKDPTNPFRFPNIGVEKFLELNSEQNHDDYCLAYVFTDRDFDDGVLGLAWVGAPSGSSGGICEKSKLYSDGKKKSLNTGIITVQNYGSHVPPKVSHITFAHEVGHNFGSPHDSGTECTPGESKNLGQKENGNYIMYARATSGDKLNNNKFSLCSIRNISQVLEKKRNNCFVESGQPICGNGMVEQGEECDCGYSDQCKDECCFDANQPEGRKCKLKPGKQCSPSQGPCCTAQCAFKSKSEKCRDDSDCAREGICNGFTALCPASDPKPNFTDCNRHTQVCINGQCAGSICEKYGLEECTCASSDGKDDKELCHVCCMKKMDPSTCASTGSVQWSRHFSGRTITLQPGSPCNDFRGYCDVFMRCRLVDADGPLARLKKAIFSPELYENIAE
Sequence of ADAM9 (Q13443 206-697): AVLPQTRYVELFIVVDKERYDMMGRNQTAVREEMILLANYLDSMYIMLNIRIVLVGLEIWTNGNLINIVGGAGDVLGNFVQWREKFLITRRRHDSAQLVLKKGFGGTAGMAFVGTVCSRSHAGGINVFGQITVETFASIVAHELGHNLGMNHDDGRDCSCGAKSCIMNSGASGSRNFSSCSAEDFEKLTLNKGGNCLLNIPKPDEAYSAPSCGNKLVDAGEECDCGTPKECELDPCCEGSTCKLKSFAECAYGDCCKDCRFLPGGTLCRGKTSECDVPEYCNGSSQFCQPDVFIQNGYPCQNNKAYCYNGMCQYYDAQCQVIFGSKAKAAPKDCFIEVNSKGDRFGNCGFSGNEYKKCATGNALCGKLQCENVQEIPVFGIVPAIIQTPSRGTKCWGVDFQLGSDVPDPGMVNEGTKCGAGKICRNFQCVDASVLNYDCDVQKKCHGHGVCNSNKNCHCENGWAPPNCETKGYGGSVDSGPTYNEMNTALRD
Sequence of MMP-3 (P08254 100-272): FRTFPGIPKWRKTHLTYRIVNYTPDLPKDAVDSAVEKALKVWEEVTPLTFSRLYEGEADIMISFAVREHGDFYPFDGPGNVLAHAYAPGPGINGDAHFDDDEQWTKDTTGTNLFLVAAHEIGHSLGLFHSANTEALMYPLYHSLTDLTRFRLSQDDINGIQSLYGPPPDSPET
Sequence of MMP-9 (P14780 94-707, species assumed): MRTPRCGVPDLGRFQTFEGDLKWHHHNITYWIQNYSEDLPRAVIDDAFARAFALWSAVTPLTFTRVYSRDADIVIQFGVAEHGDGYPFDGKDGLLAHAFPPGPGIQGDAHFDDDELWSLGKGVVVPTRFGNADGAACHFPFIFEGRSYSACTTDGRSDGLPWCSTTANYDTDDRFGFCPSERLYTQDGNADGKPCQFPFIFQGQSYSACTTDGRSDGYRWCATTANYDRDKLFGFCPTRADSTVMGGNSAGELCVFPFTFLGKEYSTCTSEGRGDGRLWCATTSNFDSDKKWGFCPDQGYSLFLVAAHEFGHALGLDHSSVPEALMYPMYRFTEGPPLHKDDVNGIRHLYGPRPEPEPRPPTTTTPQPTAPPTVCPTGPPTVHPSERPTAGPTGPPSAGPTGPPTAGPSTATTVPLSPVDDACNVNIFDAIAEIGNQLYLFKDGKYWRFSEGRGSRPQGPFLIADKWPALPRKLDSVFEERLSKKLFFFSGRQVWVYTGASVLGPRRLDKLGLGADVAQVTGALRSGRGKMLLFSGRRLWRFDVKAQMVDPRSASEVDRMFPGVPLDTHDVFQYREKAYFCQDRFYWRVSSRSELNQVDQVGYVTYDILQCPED

NCc1ccc(Oc2ccc(S(=O)(=O)CC3CS3)cc2)cc1 (stereo not drawn) [Compound 5, (4-(4-((Thiiran-2-ylmethyl)sulfonyl)phenoxy)phenyl)methanamine HCl salt]
time brain levels above Ki for MMP-2 ([1]; 5 mg/kg single iv, mice): at least 30 min
time brain levels above Ki for MMP-9 ([1]; 5 mg/kg single iv, mice): at least 30 min
time plasma levels above Ki for MMP-2 ([1]; 5 mg/kg single iv, mice): at least 30 min
time plasma levels above Ki for MMP-9 ([1]; 5 mg/kg single iv, mice): at least 30 min
Brain concentration ([1]; 2 min after 5 mg/kg single iv, mice): 5.55 ± 2.38 pmol/mg tissue
Brain concentration ([1]; 5 min after 5 mg/kg single iv, mice): 2.97 ± 2.41 pmol/mg tissue
Brain concentration ([1]; 10 min after 5 mg/kg single iv, mice): 1.20 ± 0.50 pmol/mg tissue
Brain concentration ([1]; 30 min after 5 mg/kg single iv, mice): 0.213 ± 0.143 pmol/mg tissue
Brain concentration ([1]; 60 min after 5 mg/kg single iv, mice): 0.0368 ± 0.0232 pmol/mg tissue
Brain concentration ([1]; 90 min after 5 mg/kg single iv, mice): 0.0213 ± 0.0106 pmol/mg tissue
Brain concentration ([1]; 120 min after 5 mg/kg single iv, mice): 0.0158 ± 0.0125 pmol/mg tissue
Brain concentration ([1]; 240 min after 5 mg/kg single iv, mice): 0.00531 ± 0.00402 pmol/mg tissue
AUC0-last ([1]; brain, 5 mg/kg single iv, mice): 57.7 pmol·min/mg
AUC0-∞ ([1]; brain, 5 mg/kg single iv, mice): 58.3 pmol·min/mg
t1/2α ([1]; brain, 5 mg/kg single iv, mice): 3.32 min
t1/2β ([1]; brain, 5 mg/kg single iv, mice): 75.3 min
crossing of the blood-brain barrier ([1]; in words, listed as ND-336, HCl salt): cross the blood-brain barrier; also recorded: crosses the BBB
concentration at 2 min [1, 8]: 4350 ± 1100 nM
concentration at 5 min [1, 8]: 3150 ± 1490 nM
concentration at 10 min [1, 8]: 2390 ± 820 nM
concentration at 30 min [1, 8]: 377 ± 116 nM
concentration at 60 min [1, 8]: 57.4 ± 31.6 nM
concentration at 90 min [1, 8]: 33.2 ± 6.5 nM
concentration at 120 min [1, 8]: 21.8 ± 5.4 nM
concentration at 240 min [1, 8]: 6.94 ± 6.06 nM
AUC(0-inf) [1, 9]: 1.23 µM·h
AUC(0-t) [1, 9]: 1.22 µM·h
Kp [1, 9]: 0.793
Vd [1, 9]: 2.76 L/kg
clearance [1, 9]: 202 mL/min/kg
AUC0-last [1, 10]: 72.9 µM·min
AUC0-∞ [1, 10]: 73.6 µM·min
CL [1, 10]: 202 mL/min/kg
t1/2α [1, 10]: 6.47 min
t1/2β [1, 10]: 68.0 min
Ki ([2]; Ki): 85 ± 1 nM
Ki [2]: 85 nM
cleavage of tau in the presence of MMP-9 [3]: prevents cleavage of tau
Inhibition [4]: Ki (ADAM-9) 31% inhibition at 100 μM
Inhibition [5]: Ki (MMP-3) 23% inhibition at 100 μM
Inhibition [6]: Ki (MMP-7) 1% inhibition at 100 μM
Inhibition [7]: Ki (ADAM-10) 14% inhibition at 100 μM
